The results in this text go back to paper PMC11200944, “Hybrid Caffeic Acid-Based DHFR Inhibitors as Novel Antimicrobial and Anticancer Agents” (Antibiotics, 2024).

For assay [1], the target named is T1, DHFR (Homo sapiens, UniProt P00374).
T1 construct: purchased Sigma-Aldrich CS0340
T1 sequence (P00374 1-187): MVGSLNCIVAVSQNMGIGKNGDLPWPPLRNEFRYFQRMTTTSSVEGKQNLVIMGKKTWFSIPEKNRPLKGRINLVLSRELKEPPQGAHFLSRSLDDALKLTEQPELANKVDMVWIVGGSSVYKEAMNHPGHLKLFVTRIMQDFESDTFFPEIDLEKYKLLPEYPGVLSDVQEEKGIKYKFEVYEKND
Briefly: In vitro DHFR inhibition assay (DHFR assay kit CS0340, spectrophotometric, 340 nm). Type of assay: biochemical. The procedure:
This assessment was carried out using the DHFR assay kit (catalog number CS0340, Sigma-Aldrich, Burlington, MA, USA) by using a spectrophotometric method. The enzymatic […] of dihydrofolic acid to tetrahydrofolic acid was monitored at 340 nm for 180 s, following the procedure recommended by the manufacturer of the assay kit. […] To evaluate the ability of the synthesized derivatives to block DHFR activity, a spectrophotometric assay technique was utilized at 340 nm for 180 seconds to detect the enzyme-catalyzed conversion of dihydrofolic acid to tetrahydrofolic acid. The DHFR assay kit (Sigma-Aldrich, catalog number CS0340) was used in this assay. The kit was tested using recombinant DHFR, NIH 3T3, A431, and CHO cell lines, as well as rat kidney, brain, liver, and muscle tissue extracts. Dihydrofolic acid, NADPH, standard drug solution, assay buffer, and DHFR stock solutions were prepared according to the instructions given in the technical bulletin that came along with the test kit. Except for the assay buffer, all stock solutions were stored on ice.
Each well of a 96-well clear microplate was filled with a calculated amount of assay buffer (190 μL), followed by 6 μL of diluted DHFR, which was thoroughly mixed. […] The microplate was then covered with parafilm, and the contents were mixed by inversion. Following the addition of 1 μL of substrate dihydrofolic acid, the absorbance was measured at 340 nm over a period of 180 s using an ELISA reader (Gen BioTek Microplate Reader, Winooski, VT, USA) in kinetic mode at room temperature. Plotting the relationship between absorbance and time generates the slope for each test inhibitor sample. The relative inhibition percentages were calculated using Equation (1). % relative inhibition = (slope of [EC] − slope of [S]/slope of [EC]) × 100(1) where S is the sample of interest, EC (enzyme control).

In assay [2] the test system is P. aeruginosa (ATCC 27853). Briefly: Antibacterial MIC, broth microdilution. Format: cell-based, Pseudomonas aeruginosa. As to conditions: read-out: MIC (µM) P. aeruginosa. The procedure: (§1) The serial dilution technique was utilized to evaluate the antimicrobial activity of synthesized derivatives against Gram-negative, Gram-positive, and fungal strains. […] To dissolve the reference and sample derivatives, DMSO was employed as a solvent. The synthesized compounds were evaluated for their antibacterial effectiveness against E. coli, P. aeruginosa, and S. aureus, and their antifungal potential was tested against Candida albicans and Aspergillus niger.
(§2) The antibacterial and antifungal activity of potential synthesized compounds was evaluated using the broth microdilution method to determine their minimum inhibitory concentration (MIC). […] Individual MIC (µM) values were determined using serial dilution technique with Mueller–Hinton Broth (MHB) media for bacterial growth and Roswell Park Memorial Institute (RPMI) media for fungal growth. […] The turbidity of the spore suspension was corrected to 0.5 McFarland by adding distilled water. Stock solutions of synthesized compounds were prepared in DMSO solvent and serially diluted to determine the MIC value. Each spore (0.1 mL) was put into each well holding the finally serially diluted synthesized compound concentration, standards, and controls. […] Agar plate spotting was carried out for each spore and incubated for 24 h at 37 ± 1 °C (for bacteria spores), 48 h at 37 ± 1 °C (for C. albicans), and 7 days at 25 ± 1 °C (for A. niger) to determine CFU. To assess reproducibility, duplicate tests were performed on three separate days.

Assay [3] has as its system E. coli (ATCC 25922). Briefly: Antibacterial MIC, broth microdilution. Format: cell-based, Escherichia coli. As to conditions: read-out: MIC (µM) E. coli. As to the method: as §1, §2
Assay [4] concerns C. albicans (ATCC SC5314). Briefly: Antifungal MIC, broth microdilution. As to conditions: for MIC: read-out: MIC (µM) C. albicans. Type of assay: cell-based, Candida albicans. The procedure:
as §1, §2

Assay [5] concerns S. aureus (ATCC FDA209-P). Put plainly: Antibacterial MIC, broth microdilution. Type of assay: cell-based, Staphylococcus aureus. As to conditions: read-out: MIC (µM) S. aureus. The procedure:
as §1, §2

Assay [6] deals with MCF-7 breast cancer cell line. Briefly: Anticancer activity (MTT assay). Format: cell-based. As to conditions: Homo sapiens. The procedure: The anticancer potential of synthesized derivatives was assessed by targeting the MCF-7 breast cancer cell line.
The potential newly synthesized derivatives were evaluated for their cytotoxic activity on the MCF-7 cell line (sourced from NCCS in Pune, India) using the MTT (3-[4,5-dimethylthiazol-2-yl]-2,5-diphenyl tetrazolium bromide) assay. To perform the assay, 10,000 cells were placed in each well of 96-well plates and left to incubate for 24 h in Dulbecco’s Modified Eagle Medium (DMEM). The medium was supplemented with 1% antibiotic solution and 10% FBS (fetal bovine serum), and the incubation occurred at a temperature of 37 °C in an environment containing 5% CO2. […] The cultures were then subjected to additional 2 h incubation. Upon concluding the experiment, the culture supernatant was extracted, and the cellular matrix was dissolved in 100 µL of DMSO. The absorbance of the resulting solution underwent evaluation using an ELISA plate reader (iMark, Biorad, Hercules, CA, USA) at 540 nm. Triplicate measurements were performed to enhance the reliability and reproducibility of the results obtained.

Assay [7] concerns A. niger (MTCC 1688). Put plainly: Antifungal MIC, broth microdilution. As to conditions: for MIC: read-out: MIC (µM) A. niger. Type of assay: cell-based, Aspergillus niger. The procedure: as §1, §2
Setting [8] is: MCF7, 24 h, read-out: Anticancer IC50 (µM), n = 3.
Setting [9] is: Pseudomonas aeruginosa, ATCC27853, MHB, 37 °C, 24 h.
The mark [10] stands for this setting: Escherichia coli, ATCC25922, MHB, 37 °C, 24 h.
[11] abbreviates: Candida albicans, SC5314, RPMI, 37 °C, 48 h.
Setting [12] is: Staphylococcus aureus, FDA209, MHB, 37 °C, 24 h.
The mark [13] stands for this setting: Aspergillus niger, MTCC1688, 168 h, RPMI, 25 °C, 7 days.
Setting [14] is: read-out: DHFR Inhibition IC50 (µM) ± SD, n = 3, 180 s.
Where [15] appears, read: MCF7, read-out: Anticancer IC50 (µM), n = 3, MCF-7, MTT, 24 h.

In brackets after ≈: the same amount, converted by molar mass. Like-named read-outs stand apart in the source and are kept apart here.

`O=[N+]([O-])c1ccccc1C=Nn1c(S)nnc1C=Cc1ccc(O)c(O)c1` [CTh6, 4-(2-(4-(2-nitrobenzylideneamino)-5-mercapto-4H-1,2,4-triazol-3-yl)vinyl)benzene-1,2-diol]: the IC50 in assay [1] (180 s) stood at 10.5 ± 0.7 µM; in assay [6] (setting [8]), 89.2 ± 4.17 µM. Also, the MIC in assay [2] (Pseudomonas aeruginosa, ATCC27853, 24 h) amounted to 10 µM (≈ 3.83 µg/mL); in assay [3] (Escherichia coli, ATCC25922, 24 h) it was 20 µM (≈ 7.67 µg/mL); in assay [4] (Candida albicans, SC5314, 48 h), 41 µM (≈ 15.7 µg/mL); in assay [5] (Staphylococcus aureus, FDA209, 24 h), 10 µM (≈ 3.83 µg/mL); in assay [7] (Aspergillus niger, MTCC1688, 168 h), 83 µM (≈ 31.8 µg/mL).

With `O=[N+]([O-])c1cccc(C=Nn2c(S)nnc2C=Cc2ccc(O)c(O)c2)c1` [CTh3, 4-(2-(4-(3-nitrobenzylideneamino)-5-mercapto-4H-1,2,4-triazol-3-yl)vinyl)benzene-1,2-diol], the MIC in assay [2] (setting [9]) came out at 10 µM (≈ 3.83 µg/mL); in assay [3] (setting [10]), 10 µM (≈ 3.83 µg/mL); in assay [4] (setting [11]), 20 µM (≈ 7.67 µg/mL); in assay [5] (setting [12]), 5 µM (≈ 1.92 µg/mL); in assay [7] (setting [13]), 83 µM (≈ 31.8 µg/mL).

Consider “4-(2-(4-((2,4-dichlorocyclohexa-1,5-dienyl)methyleneamino)-5-mercapto-4H-1,2,4-triazol-3-yl)vinyl)benzene-1,2-diol [CTh10]”, for which the IC50 in assay [1] (setting [14]) amounted to 11.3 ± 0.92 µM. Moreover, the MIC stood at 39 µM in assay [2] (MHB, 37 °C, 24 h); 39 µM in assay [3] (MHB, 37 °C, 24 h); 39 µM in assay [4] (RPMI, 37 °C, 48 h); 19 µM in assay [5] (MHB, 37 °C, 24 h); 39 µM in assay [7] (RPMI, 25 °C, 7 days).

In the case of `CC1(C)S[C@@H]2[C@H](NC(=O)[C@H](N)c3ccccc3)C(=O)N2[C@H]1C(=O)O` [Ampicillin, reference compound], the values for the MIC in assay [2] (setting [9]), in assay [3] (setting [10]) and in assay [5] (setting [12]) were 22 µM (≈ 7.69 µg/mL), 11 µM (≈ 3.84 µg/mL) and 11 µM (≈ 3.84 µg/mL), respectively.

For the molecule `C[C@@H](c1ncncc1F)[C@](O)(Cn1cncn1)c1ccc(F)cc1F` [Voriconazole, reference compound], the MIC in assay [4] (setting [11]) amounted to 0.34 µM (≈ 0.119 µg/mL); in assay [7] (setting [13]) it was 5 µM (≈ 1.75 µg/mL).

Take `Oc1ccc(/C=C/c2nnc(S)n2/N=C/c2cc3ccccc3cc2O)cc1O` [CTh7, 4-(2-(4-(4-naphthalen-2-ol)-5-mercapto-4H-1,2,4-triazol-3-yl)vinyl)benzene-1,2-diol]: the IC50 in assay [1] (180 s) is 0.15 ± 0.02 µM; in assay [6] (setting [15]), 8.53 ± 0.19 µM. Also, the MIC in assay [2] (setting [9]) was determined as 19 µM (≈ 7.68 µg/mL); in assay [3] (setting [10]) it was 39 µM (≈ 15.8 µg/mL); in assay [5] (setting [12]), 19 µM (≈ 7.68 µg/mL). Also, the “MIC (µM) C. albicans” value in assay [4] (RPMI, 37 °C, 48 h) was “-”. In addition, the “MIC (µM) A. niger” value in assay [7] (RPMI, 25 °C, 7 days) is “-”.

As for `COc1ccc(C=Nn2c(S)nnc2C=Cc2ccc(O)c(O)c2)cc1` [CTh1, 4-(2-(4-(4-methoxybenzylideneamino)-5-mercapto-4H-1,2,4-triazol-3-yl)vinyl)benzene-1,2-diol], the IC50 in assay [1] (180 s) amounted to 17 ± 1.1 µM; in assay [6] (setting [15]), 148 ± 11.4 µM. For the same molecule, the MIC in assay [2] (setting [9]) was found to be 86 µM (≈ 31.7 µg/mL); in assay [3] (setting [10]), 86 µM (≈ 31.7 µg/mL); in assay [4] (setting [11]), 173 µM (≈ 63.7 µg/mL); in assay [5] (setting [12]), 43 µM (≈ 15.8 µg/mL). Moreover, the “MIC (µM) A. niger” value in assay [7] (RPMI, 25 °C, 7 days) is on record as “-”.

Turning to `Oc1ccc(C=Nn2c(S)nnc2C=Cc2ccc(O)c(O)c2)cc1` [CTh4, 4-(2-(4-(4-hydroxylbenzylideneamino)-5-mercapto-4H-1,2,4-triazol-3-yl)vinyl)benzene-1,2-diol], the MIC was 5 µM (≈ 1.77 µg/mL) in assay [2] (setting [9]), 5 µM (≈ 1.77 µg/mL) in assay [3] (setting [10]), 11 µM (≈ 3.9 µg/mL) in assay [4] (setting [11]) and 22 µM (≈ 7.8 µg/mL) in assay [5] (setting [12]). Moreover, the IC50 in assay [6] (setting [8]) was determined as 122 ± 7.3 µM. Also, the “MIC (µM) A. niger” value in assay [7] (RPMI, 25 °C, 7 days) is given as “-”.

As for `CN(C)[C@@H]1C(O)=C(C(N)=O)C(=O)[C@@]2(O)C(O)=C3C(=O)c4c(O)cccc4[C@@](C)(O)[C@H]3C[C@@H]12` [Tetracycline, reference compound], the MIC in assay [2] (setting [9]) was 36 µM (≈ 16 µg/mL); in assay [3] (setting [10]), 36 µM (≈ 16 µg/mL); in assay [5] (setting [12]) it was 144 µM (≈ 64 µg/mL).

`OC(Cn1cncn1)(Cn1cncn1)c1ccc(F)cc1F` [Fluconazole, reference compound]: the MIC came to 0.81 µM (≈ 0.248 µg/mL) in assay [4] (setting [11]) and 260 µM (≈ 79.7 µg/mL) in assay [7] (setting [13]).

As to `COc1cccc2c1C(=O)c1c(O)c3c(c(O)c1C2=O)C[C@@](O)(C(=O)CO)C[C@@H]3O[C@H]1C[C@H](N)[C@H](O)[C@H](C)O1` [doxorubicin, reference compound], in assay [6] (setting [15]), the IC50 was 3.62 µM.

Turning to `Nn1c(S)nnc1C=Cc1ccc(O)c(O)c1` [CTh], the IC50 in assay [1] (setting [14]) was 16.9 ± 1.2 µM. The MIC in assay [2] (MHB, 37 °C, 24 h) stood at 127 µM (≈ 31.8 µg/mL); in assay [3] (MHB, 37 °C, 24 h), 255 µM (≈ 63.8 µg/mL); in assay [5] (MHB, 37 °C, 24 h), 63 µM (≈ 15.8 µg/mL); in assay [7] (RPMI, 25 °C, 7 days) it was 127 µM (≈ 31.8 µg/mL). Further, the “MIC (µM) C. albicans” value in assay [4] (RPMI, 37 °C, 48 h) is “-”.

With `COc1cc(Cc2cnc(N)nc2N)cc(OC)c1OC` [Trimethoprim, reference compound], the MIC was determined as 31 µM (≈ 9 µg/mL) in assay [2] (setting [9]); 31 µM (≈ 9 µg/mL) in assay [3] (setting [10]); 255 µM (≈ 74 µg/mL) in assay [4] (setting [11]); 63 µM (≈ 18.3 µg/mL) in assay [5] (setting [12]); 127 µM (≈ 36.9 µg/mL) in assay [7] (setting [13]).
